Results taken from patent US12077503B2, “Substituted cyclic amides and their use as herbicides” (FMC CORPORATION, priority 2015, dated 2024).
Where two headings read alike, the source gives them in different places.

How the values were obtained:
Assay type in all cases: in vivo
[1] = test system: ragweed (common ragweed, Ambrosia elatior); experiment: Test A preemergence; details: Ambrosia artemisiifolia, pre-emergence, 240 h; for pest or weed control at 125 g/ha: 125 g ai/ha, Preemergence, visual injury rating after approximately 10 d, read-out: Ragweed plant response rating (0 to 100 scale, 0 is no effect, 100 is complete control); for pest or weed control at 500 g/ha: 500 g ai/ha, preemergence, visual injury rating about 10 d after treatment, 0 to 100 scale (0 no effect, 100 complete control), read-out: Ragweed plant response rating
How it was run: (§1)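 Preemergence directed soil spray on seeded pots, or postemergence application to plants 2–10 cm, one- to two-leaf. Solvent mixture non-phytotoxic, with surfactant. Scored ~10 d later, visually, 0–100 vs untreated.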

[2] = test system: Kochia (Kochia scoparia); experiment: Test A preemergence; details: Bassia scoparia, pre-emergence, 240 h; for pest or weed control at 125 g/ha: 125 g ai/ha, Preemergence, visual injury rating after approximately 10 d, read-out: Kochia plant response rating (0 to 100 scale, 0 is no effect, 100 is complete control); for pest or weed control at 500 g/ha: 500 g ai/ha, preemergence, visual injury rating about 10 d after treatment, 0 to 100 scale (0 no effect, 100 complete control), read-out: Kochia plant response rating
How it was run: as §1

[3] = test system: pigweed (Amaranthus retroflexus); experiment: Test A preemergence; details: Amaranthus retroflexus, pre-emergence, 240 h; for pest or weed control at 125 g/ha: 125 g ai/ha, Preemergence, visual injury rating after approximately 10 d, read-out: Pigweed plant response rating (0 to 100 scale, 0 is no effect, 100 is complete control); for pest or weed control at 500 g/ha: 500 g ai/ha, preemergence, visual injury rating about 10 d after treatment, 0 to 100 scale (0 no effect, 100 complete control), read-out: Pigweed plant response rating
[4] = test system: giant foxtail (Setaria faberii); experiment: Test A preemergence; details: Setaria faberi, pre-emergence, 240 h; for pest or weed control at 125 g/ha: 125 g ai/ha, Preemergence, visual injury rating after approximately 10 d, read-out: Foxtail, Giant plant response rating (0 to 100 scale, 0 is no effect, 100 is complete control); for pest or weed control at 500 g/ha: 500 g ai/ha, preemergence, visual injury rating about 10 d after treatment, 0 to 100 scale (0 no effect, 100 complete control), read-out: Foxtail, Giant plant response rating
How it was run: as §1

[5] = test system: barnyardgrass (Echinochloa crus-galli); experiment: Test A preemergence; details: Echinochloa crus-galli, pre-emergence, 240 h; for pest or weed control at 125 g/ha: 125 g ai/ha, Preemergence, visual injury rating after approximately 10 d, read-out: Barnyardgrass plant response rating (0 to 100 scale, 0 is no effect, 100 is complete control); for pest or weed control at 500 g/ha: 500 g ai/ha, preemergence, visual injury rating about 10 d after treatment, 0 to 100 scale (0 no effect, 100 complete control), read-out: Barnyardgrass plant response rating
How it was run: as §1

[6] = test system: ryegrass, Italian (Italian ryegrass, Lolium multiflorum); experiment: Test A preemergence; details: Lolium multiflorum, pre-emergence, 240 h; for pest or weed control at 125 g/ha: 125 g ai/ha, Preemergence, visual injury rating after approximately 10 d, read-out: Ryegrass, Italian plant response rating (0 to 100 scale, 0 is no effect, 100 is complete control); for pest or weed control at 500 g/ha: 500 g ai/ha, preemergence, visual injury rating about 10 d after treatment, 0 to 100 scale (0 no effect, 100 complete control), read-out: Ryegrass, Italian plant response rating
How it was run: as §1

[7] = test system: rice (Oryra sativa); experiment: Test B flooded paddy test; details: Oryza sativa, Flood, 250 g ai/ha, read-out: Rice plant response rating
How it was run: (§2)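 Evaluation by eye, against controls, occurred 13–15 d post-treatment in a greenhouse, using a 0 (no effect) to 100 (complete control) scale. Application was into the paddy water, 3 cm deep over the soil, on 2-leaf plants.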

[8] = test system: sedge, umbrella (small-flower umbrella sedge, Cyperus difformis); experiment: Test B flooded paddy test; details: Cyperus difformis, 250 g ai/ha, Flood; 0 to 100 scale where 0 is no effect and 100 is complete control; read-out: Sedge, Umbrella plant response rating
How it was run: as §2

[9] = test system: barnyardgrass (Echinochloa crus-galli); experiment: Test B flooded paddy test; details: Echinochloa crus-galli, Flood, 250 g ai/ha, read-out: Barnyardgrass plant response rating
How it was run: as §2

[10] = test system: ducksalad (Heteranthera limosa); experiment: Test B flooded paddy test; details: Heteranthera limosa, Flood, 250 g ai/ha, read-out: Ducksalad plant response rating
How it was run: as §2

[11] = test system: ragweed (common ragweed, Ambrosia elatior); experiment: Test A postemergence; details: Ambrosia artemisiifolia, post-emergence, 240 h, read-out: Plant response rating, Ragweed; for pest or weed control at 125 g/ha: 125 g ai/ha, Postemergence, visual injury after approximately 10 d, 0 to 100 scale where 0 is no effect and 100 is complete control
How it was run: as §1

[12] = test system: Kochia (Kochia scoparia); experiment: Test A postemergence; details: Bassia scoparia, post-emergence, 240 h, read-out: Plant response rating, Kochia; for pest or weed control at 125 g/ha: 125 g ai/ha, Postemergence, visual injury after approximately 10 d, 0 to 100 scale where 0 is no effect and 100 is complete control
How it was run: as §1

[13] = test system: pigweed (Amaranthus retroflexus); experiment: Test A postemergence; details: Amaranthus retroflexus, post-emergence, 240 h, read-out: Plant response rating, Pigweed; for pest or weed control at 125 g/ha: 125 g ai/ha, Postemergence, visual injury after approximately 10 d, 0 to 100 scale where 0 is no effect and 100 is complete control
How it was run: as §1

[14] = test system: giant foxtail (Setaria faberii); experiment: Test A postemergence; details: Setaria faberi, post-emergence, 240 h, read-out: Plant response rating, Foxtail, Giant; for pest or weed control at 125 g/ha: 125 g ai/ha, Postemergence, visual injury after approximately 10 d, 0 to 100 scale where 0 is no effect and 100 is complete control
How it was run: as §1

[15] = test system: corn (Zea mays); experiment: Test A postemergence; details: Zea mays, post-emergence, 240 h; for Corn plant response rating (crop injury, 0 = no effect, 100 = complete kill) at 125 g/ha: 125 g ai/ha, Postemergence, visual injury after approximately 10 d, 0 to 100 scale where 0 is no effect and 100 is complete control
How it was run: as §1

[16] = test system: barnyardgrass (Echinochloa crus-galli); experiment: Test A postemergence; details: Echinochloa crus-galli, post-emergence, 240 h, read-out: Plant response rating, Barnyardgrass; for pest or weed control at 125 g/ha: 125 g ai/ha, Postemergence, visual injury after approximately 10 d, 0 to 100 scale where 0 is no effect and 100 is complete control
How it was run: as §1

[17] = test system: ryegrass, Italian (Italian ryegrass, Lolium multiflorum); experiment: Test A postemergence; details: Lolium multiflorum, post-emergence, 240 h, read-out: Plant response rating, Ryegrass, Italian; for pest or weed control at 125 g/ha: 125 g ai/ha, Postemergence, visual injury after approximately 10 d, 0 to 100 scale where 0 is no effect and 100 is complete control
How it was run: as §1

[18] = test system: blackgrass (Alopecurus myosuroides); experiment: Test A postemergence; details: Alopecurus myosuroides, post-emergence, 240 h, read-out: Plant response rating, Blackgrass; for pest or weed control at 125 g/ha: 125 g ai/ha, Postemergence, visual injury after approximately 10 d, 0 to 100 scale where 0 is no effect and 100 is complete control
How it was run: as §1

[19] = test system: Galium (catchweed bedstraw, Galium aparine); experiment: Test A postemergence; details: Galium, post-emergence, 240 h, read-out: Plant response rating, Galium; for pest or weed control at 125 g/ha: 125 g ai/ha, Postemergence, visual injury after approximately 10 d, 0 to 100 scale where 0 is no effect and 100 is complete control
How it was run: as §1

[20] = test system: wheat (Triticum aestivum); experiment: Test A postemergence; details: Triticum aestivum, post-emergence, 240 h, read-out: Plant response rating, Wheat; for plant injury at 125 g/ha: 125 g ai/ha, Postemergence, visual injury after approximately 10 d, 0 to 100 scale where 0 is no effect and 100 is complete control
How it was run: as §1

[21] = scale of 0 to 100 where 0 is no effect and 100 is complete control
[22] = 0 to 100 scale where 0 is no effect and 100 is complete control
[23] = 500 g ai/ha, postemergence, visual injury, 0 to 100 scale (0 no effect, 100 complete control), approx. 10 d

Question: For `CSc1ccccc1NC(=O)[C@H]1C(=O)N(C)C[C@@H]1c1ccc(F)c(Br)c1` [Compound 990], which pest or weed control at 125 g/ha [1] is on record?
Answer: 50%

Question: And the pest or weed control at 500 g/ha [1]?
Answer: 80%

Question: What about the pest or weed control at 125 g/ha [2] of the same compound?
Answer: 70%

Question: And the pest or weed control at 500 g/ha [2]?
Answer: 90%

Question: And the pest or weed control at 125 g/ha [3]?
Answer: 40%

Question: What about the pest or weed control at 500 g/ha [3] of the same compound?
Answer: 80%

Question: And the pest or weed control at 125 g/ha [4]?
Answer: 100%

Question: And the pest or weed control at 500 g/ha [4]?
Answer: 100%

Question: What about the pest or weed control at 125 g/ha [5] of the same compound?
Answer: 100%

Question: What about the pest or weed control at 500 g/ha [5] of the same compound?
Answer: 100%

Question: What about the pest or weed control at 125 g/ha [6] of the same compound?
Answer: 0%

Question: What about the pest or weed control at 500 g/ha [6] of the same compound?
Answer: 60%

Question: What about the pest or weed control at 250 g/ha [7, 21] of the same compound?
Answer: 55%

Question: What about the pest or weed control at 250 g/ha [8] of the same compound?
Answer: 0%

Question: And the pest or weed control at 250 g/ha [9, 21]?
Answer: 50%

Question: And the pest or weed control at 250 g/ha [10, 21]?
Answer: 100%

Question: And the pest or weed control at 125 g/ha [11]?
Answer: 0%

Question: And the pest or weed control at 125 g/ha [12]?
Answer: 40%

Question: And the pest or weed control at 125 g/ha [13]?
Answer: 30%

Question: And the pest or weed control at 125 g/ha [14]?
Answer: 80%

Question: And the Corn plant response rating (crop injury, 0 = no effect, 100 = complete kill) at 125 g/ha [15]?
Answer: 40%

Question: What about the pest or weed control at 125 g/ha [16] of the same compound?
Answer: 90%

Question: What about the pest or weed control at 125 g/ha [17] of the same compound?
Answer: 20%

Question: And the pest or weed control at 125 g/ha [18]?
Answer: 0%

Question: What about the pest or weed control at 125 g/ha [19] of the same compound?
Answer: 60%

Question: And the plant injury at 125 g/ha [20]?
Answer: 0%

Question: What does the source list for `CSc1ccccc1NC(=O)[C@H]1C(=O)N(C)C[C@@H]1c1ccc(C)c(Cl)c1` [Compound 1015]?
Answer: pest or weed control at 125 g/ha [1]: 0%; pest or weed control at 500 g/ha [1]: 50%; pest or weed control at 125 g/ha [2]: 0%; pest or weed control at 500 g/ha [2]: 60%; pest or weed control at 125 g/ha [3]: 0%; pest or weed control at 500 g/ha [3]: 40%; pest or weed control at 125 g/ha [4]: 90%; pest or weed control at 500 g/ha [4]: 90%; pest or weed control at 125 g/ha [5]: 90%; pest or weed control at 500 g/ha [5]: 90%; pest or weed control at 125 g/ha [6]: 40%; pest or weed control at 500 g/ha [6]: 90%; pest or weed control at 250 g/ha [7, 22]: 40%; pest or weed control at 250 g/ha [8]: 35%; pest or weed control at 250 g/ha [9, 22]: 95%; pest or weed control at 250 g/ha [10, 22]: 90%; pest or weed control at 125 g/ha [11]: 0%; pest or weed control at 500 g/ha [11, 23]: 40%; pest or weed control at 125 g/ha [12]: 0%; pest or weed control at 500 g/ha [12, 23]: 50%; pest or weed control at 125 g/ha [13]: 30%; pest or weed control at 500 g/ha [13, 23]: 50%; pest or weed control at 125 g/ha [14]: 80%; pest or weed control at 500 g/ha [14, 23]: 80%; Corn plant response rating (crop injury, 0 = no effect, 100 = complete kill) at 125 g/ha [15]: 70%; Corn plant response rating (crop injury, 0 = no effect, 100 = complete kill) at 500 g/ha [15, 23]: 90%; pest or weed control at 125 g/ha [16]: 90%; pest or weed control at 500 g/ha [16, 23]: 90%; pest or weed control at 125 g/ha [17]: 30%; pest or weed control at 500 g/ha [17, 23]: 50%; pest or weed control at 125 g/ha [18]: 0%; pest or weed control at 500 g/ha [18, 23]: 50%; pest or weed control at 125 g/ha [19]: 40%; pest or weed control at 500 g/ha [19, 23]: 70%; plant injury at 125 g/ha [20]: 0%; plant injury at 500 g/ha [20, 23]: 60%
